Each compound was assayed on barnyardgrass (assay: Test Example 1: foliage treatment, upland pot test). Settings: active ingredient 500 g/ha, observed 18th to 23rd day, 0 = non-treated, 100 = complete kill.
Type: in vivo, Echinochloa crus-galli L.
How it was run: (§1)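 Visual growth-control score, 0% (like untreated) to 100% (complete kill), taken on days 18 to 23 after foliar spraying. Leaf stage at treatment: barnyardgrass 1.3–2.8, rice 1.2–2.6, wheat 1.3–2.4, soybean 0.1–0.4. Spray: wettable powder or EC in 500 L/ha water, 0.1% v/v spreader added.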

Q: How did the “Growth controlling degree (%) Barnyardgrass” value turn out when `CCC(CC)C(c1cnccc1C(F)(F)F)N(C)C(=O)COc1ccccc1` (stereo not shown) [I-263] was run?
A: 80%

Each compound was assayed on crabgrass (assay: Test Example 1: foliage treatment, upland pot test). Settings: active ingredient 500 g/ha, observed 18th to 23rd day, 0 = non-treated, 100 = complete kill.
Type: in vivo, Digitaria sanguinalis L.

Q: Which “Growth controlling degree (%) Crabgrass” value does the source give for `CCC(CC)C(c1cnccc1C(F)(F)F)N(C)C(=O)COc1ccccc1` (stereo not shown) [I-263] here?
A: 80%

The compounds below were run on green foxtail (assay: Test Example 1: foliage treatment, upland pot test). Settings: active ingredient 500 g/ha, observed 18th to 23rd day, 0 = non-treated, 100 = complete kill.
Type: in vivo, Setaria viridis L.

Q: How did the “Growth controlling degree (%) Green foxtail” value turn out when `CCC(CC)C(c1cnccc1C(F)(F)F)N(C)C(=O)COc1ccccc1` (stereo not shown) [I-263] was run?
A: 70%

What follows are compounds tested on redroot pigweed (assay: Test Example 1: foliage treatment, upland pot test). Settings: active ingredient 500 g/ha, observed 18th to 23rd day, 0 = non-treated, 100 = complete kill.
Type: in vivo, Amaranthus retroflexus L.

Q: Which “Growth controlling degree (%) Redroot pigweed” value does the source give for `CCC(CC)C(c1cnccc1C(F)(F)F)N(C)C(=O)COc1ccccc1` (stereo not shown) [I-263] here?
A: 70%

The compounds below were run on prickly sida (assay: Test Example 1: foliage treatment, upland pot test). Settings: active ingredient 500 g/ha, observed 18th to 23rd day, 0 = non-treated, 100 = complete kill.
Type: in vivo, Sida spinosa L.

Q: `CCC(CC)C(c1cnccc1C(F)(F)F)N(C)C(=O)COc1ccccc1` (stereo not shown) [I-263] was tested. Which “Growth controlling degree (%) Prickly sida” value did it give?
A: 90%

The compounds below were run on velvetleaf (assay: Test Example 1: foliage treatment, upland pot test). Settings: active ingredient 500 g/ha, observed 18th to 23rd day, 0 = non-treated, 100 = complete kill.
Type: in vivo, Abutilon theophrasti MEDIC.

Q: With `CCC(CC)C(c1cnccc1C(F)(F)F)N(C)C(=O)COc1ccccc1` (stereo not shown) [I-263] as the compound, how does the “Growth controlling degree (%) Velvetleaf” value read?
A: 95%

These compounds were tested on rice (assay: Test Example 1: foliage treatment, upland pot test). Settings: crop, active ingredient 500 g/ha, observed 18th to 23rd day, 0 = non-treated, 100 = complete kill.
Type: in vivo, Oryza sativa L.
How it was run: as §1

Q: With `CCC(CC)C(c1cnccc1C(F)(F)F)N(C)C(=O)COc1ccccc1` (stereo not shown) [I-263] as the compound, how does the “Growth controlling degree (%) Rice” value read?
A: 60%

The compounds below were run on corn (assay: Test Example 1: foliage treatment, upland pot test). Settings: crop, active ingredient 500 g/ha, observed 18th to 23rd day, 0 = non-treated, 100 = complete kill.
Type: in vivo, Zea mays L.
How it was run: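 Corn seeds were sown in upland field soil held in a 1/170,000 ha pot and grown to the 2.1 to 3.2 leaf stage. A wettable powder or emulsifiable concentrate of the test compound was diluted with water at 500 L/ha, given 0.1% (v/v) agricultural spreader, and sprayed onto the foliage with a small sprayer. Growth controlling degree (%) was scored visually 18th to 23rd days later, from 0 (non-treated) to 100 (complete kill).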

Q: `CCC(CC)C(c1cnccc1C(F)(F)F)N(C)C(=O)COc1ccccc1` (stereo not shown) [I-263] was tested. Which “Growth controlling degree (%) Corn” value did it give?
A: 40%

These compounds were tested on soybean (assay: Test Example 1: foliage treatment, upland pot test). Settings: crop, active ingredient 500 g/ha, observed 18th to 23rd day, 0 = non-treated, 100 = complete kill.
Type: in vivo, Glycine max Merr.
How it was run: as §1

Q: With `CCC(CC)C(c1cnccc1C(F)(F)F)N(C)C(=O)COc1ccccc1` (stereo not shown) [I-263] as the compound, how does the “Growth controlling degree (%) Soybean” value read?
A: 80%

What follows are compounds tested on barnyardgrass (assay: Test Example 2: soil surface treatment, upland pot test). Settings: active ingredient 500 g/ha, observed day 21, 0 = non-treated, 100 = complete kill.
Type: in vivo, Echinochloa crus-galli L.
How it was run: (§2)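 Seeds were sown in upland field soil in 1/170,000 ha pots. One day later, a wettable powder or emulsifiable concentrate at a predetermined active-ingredient rate, diluted in water at 1,500 L/ha, was sprayed onto the soil surface. Growth control (%) was scored visually 20–28 days after application (0 = untreated, 100 = complete kill).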

Q: `CCC(CC)C(c1cnccc1C(F)(F)F)N(C)C(=O)COc1ccccc1` (stereo not shown) [I-263] was tested. Which “Growth controlling degree (%) Barnyardgrass” value did it give?
A: 10%

These compounds were tested on crabgrass in the same assay as above. Settings: active ingredient 500 g/ha, observed day 21, 0 = non-treated, 100 = complete kill.
Type: in vivo, Digitaria sanguinalis L.
How it was run: as §2

Q: `CCC(CC)C(c1cnccc1C(F)(F)F)N(C)C(=O)COc1ccccc1` (stereo not shown) [I-263] was tested. Which “Growth controlling degree (%) Crabgrass” value did it give?
A: 95%

The compounds below were run on green foxtail in the same assay as above. Settings: active ingredient 500 g/ha, observed day 21, 0 = non-treated, 100 = complete kill.
Type: in vivo, Setaria viridis L.
How it was run: as §2

Q: With `CCC(CC)C(c1cnccc1C(F)(F)F)N(C)C(=O)COc1ccccc1` (stereo not shown) [I-263] as the compound, how does the “Growth controlling degree (%) Green foxtail” value read?
A: 60%

What follows are compounds tested on redroot pigweed in the same assay as above. Settings: active ingredient 500 g/ha, observed day 21, 0 = non-treated, 100 = complete kill.
Type: in vivo, Amaranthus retroflexus L.
How it was run: as §2

Q: `CCC(CC)C(c1cnccc1C(F)(F)F)N(C)C(=O)COc1ccccc1` (stereo not shown) [I-263] was tested. Which “Growth controlling degree (%) Redroot pigweed” value did it give?
A: 70%

What follows are compounds tested on prickly sida in the same assay as above. Settings: active ingredient 500 g/ha, observed day 21, 0 = non-treated, 100 = complete kill.
Type: in vivo, Sida spinosa L.
How it was run: as §2

Q: For `CCC(CC)C(c1cnccc1C(F)(F)F)N(C)C(=O)COc1ccccc1` (stereo not shown) [I-263], which “Growth controlling degree (%) Prickly sida” value is on record?
A: 70%

What follows are compounds tested on velvetleaf in the same assay as above. Settings: active ingredient 500 g/ha, observed day 21, 0 = non-treated, 100 = complete kill.
Type: in vivo, Abutilon theophrasti MEDIC.
How it was run: as §2

Q: For `CCC(CC)C(c1cnccc1C(F)(F)F)N(C)C(=O)COc1ccccc1` (stereo not shown) [I-263], which “Growth controlling degree (%) Velvetleaf” value is on record?
A: 40%

What follows are compounds tested on rice in the same assay as above. Settings: active ingredient 500 g/ha, observed day 21, 0 = non-treated, 100 = complete kill.
Type: in vivo, Oryza sativa L.
How it was run: as §2

Q: Which “Growth controlling degree (%) Rice” value does the source give for `CCC(CC)C(c1cnccc1C(F)(F)F)N(C)C(=O)COc1ccccc1` (stereo not shown) [I-263] here?
A: 40%

What follows are compounds tested on corn in the same assay as above. Settings: active ingredient 500 g/ha, observed day 21, 0 = non-treated, 100 = complete kill.
Type: in vivo, Zea mays L.
How it was run: as §2

Q: How did the “Growth controlling degree (%) Corn” value turn out when `CCC(CC)C(c1cnccc1C(F)(F)F)N(C)C(=O)COc1ccccc1` (stereo not shown) [I-263] was run?
A: 20%

These compounds were tested on soybean in the same assay as above. Settings: active ingredient 500 g/ha, observed day 21, 0 = non-treated, 100 = complete kill.
Type: in vivo, Glycine max Merr.
How it was run: as §2

Q: `CCC(CC)C(c1cnccc1C(F)(F)F)N(C)C(=O)COc1ccccc1` (stereo not shown) [I-263] was tested. Which “Growth controlling degree (%) Soyabean” value did it give?
A: 10%

The compounds below were run on barnyardgrass (assay: Test Example 3: paddy pot test, application under submerged conditions). Settings: active ingredient 250 g/ha; submerged application at 0.5 leaf stage; visually observed 14 days after application; 0 = non-treated, 100 = complete kill.
Type: in vivo, Echinochloa crus-galli L.
How it was run: (§3)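 Barnyardgrass and japanese bulrush sown in flooded paddy soil in greenhouse pots, japanese ribbon wapato tubers planted 1–2 days later; water depth kept at 3–4 cm. Diluted wettable powder or emulsifiable concentrate applied into water at 0.5-leaf or primary-leaf stage at set active-ingredient doses. Growth control scored visually at 14 days, 0 (untreated) to 100% (complete kill).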

Q: Which “Growth controlling degree (%) Barnyardgrass” value does the source give for `CCC(CC)C(c1cnccc1C(F)(F)F)N(C)C(=O)COc1ccccc1` (stereo not shown) [I-263] here?
A: 5%

What follows are compounds tested on japanese bulrush in the same assay as above. Settings: active ingredient 250 g/ha; submerged application at 0.5 leaf stage; visually observed 14 days after application; 0 = non-treated, 100 = complete kill.
Type: in vivo, Scirpus juncoides
How it was run: as §3

Q: For `CCC(CC)C(c1cnccc1C(F)(F)F)N(C)C(=O)COc1ccccc1` (stereo not shown) [I-263], which “Growth controlling degree (%) Japanese bulrush” value is on record?
A: 90%

The compounds below were run on japanese ribbon wapato in the same assay as above. Settings: active ingredient 250 g/ha; submerged application at primary leaf stage; visually observed 14 days after application; 0 = non-treated, 100 = complete kill.
Type: in vivo, Sagittaria pygniaea
How it was run: as §3

Q: `CCC(CC)C(c1cnccc1C(F)(F)F)N(C)C(=O)COc1ccccc1` (stereo not shown) [I-263] was tested. Which “Growth controlling degree (%) Japanese ribbon wapato” value did it give?
A: 20%

What follows are compounds tested on rice (var. Nihonbare) (assay: Test Example 3: paddy pot test, transplanted rice). Settings: active ingredient 250 g/ha, applied 4th day after transplantation, visually observed 21st day after application, 0 = non-treated, 100 = complete kill.
Type: in vivo, Oryza sativa L.
How it was run: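 Rice (var. Nihonbare) at 2 leaf stage transplanted 3 cm deep into puddled paddy soil under 3–4 cm flooding; on day 4 after transplanting, diluted wettable powder or emulsifiable concentrate applied by pipette under submerged conditions at a set active-ingredient dose. Growth scored visually 21 days after application, 0 (untreated) to 100 (complete kill) %.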

Q: With `CCC(CC)C(c1cnccc1C(F)(F)F)N(C)C(=O)COc1ccccc1` (stereo not shown) [I-263] as the compound, how does the “Growth controlling degree (%) Rice” value read?
A: 0%
